Here are results for 26 molecules from US10428083B2, “Heterocyclylmethyl-thienouracile as antagonists of the adenosine-A2B-receptor” (BAYER PHARMA AKTIENGESELLSCHAFT, priority 2015, dated 2019).

This experiment concerns the target human adenosine A2b receptor (Homo sapiens (Human), UniProt P29275). Nature of the experiment: Cellular in vitro reporter gene test for A2b receptor activity (CHO-K1, CRE-luciferase, NECA stimulation). As to conditions: recombinant CHO-K1 cell line, CRE-luciferase reporter, antagonism of EC50 concentration of NECA; in some cases means of several determinations, rounded to two significant figures; read-out: A2b receptor IC50. It is filed as cell-based. The procedure, abridged:
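CHO-K1 cells with CRE-driven luciferase; antagonists co-incubated with NECA at its EC50, determined in a pre-experiment on each test day. Luciferase read by luminescence 3 h after NECA addition.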

SMILES strings stand for the structures.

Sequence of human adenosine A2b receptor (P29275 whole entry): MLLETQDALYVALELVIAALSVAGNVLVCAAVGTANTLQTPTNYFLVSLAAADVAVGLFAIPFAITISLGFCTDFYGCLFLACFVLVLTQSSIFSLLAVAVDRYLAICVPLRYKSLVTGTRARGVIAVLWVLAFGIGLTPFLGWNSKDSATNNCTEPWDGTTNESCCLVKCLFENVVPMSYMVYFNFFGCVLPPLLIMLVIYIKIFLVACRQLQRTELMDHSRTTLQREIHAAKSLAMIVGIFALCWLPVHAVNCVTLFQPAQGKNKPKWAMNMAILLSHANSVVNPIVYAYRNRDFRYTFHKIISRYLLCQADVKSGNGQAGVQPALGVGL

Broadly, the IC50 is the concentration at which inhibition is half-maximal. Turning to `Cc1c(CN2CCNC2=S)sc2c1c(=O)n(CC(F)F)c(=O)n2CC1CCCO1` (single isomer, unassigned) [Example 164, 3-(2,2-Difluoroethyl)-5-methyl-1-(tetrahydrofuran-2-ylmethyl)-6-[(2-thioxoimidazolidin-1-yl)methyl]thieno[2,3-d]pyrimidine-2,4(1H,3H)-dione], the IC50 was 17 nM.
To `CCn1c(=O)c2c(C)c(CN3CCNC3=O)sc2n(CC2CCCCO2)c1=O` (single isomer, unassigned) [Example 179, 3-Ethyl-5-methyl-6-[(2-oxoimidazolidin-1-yl)methyl]-1-(tetrahydro-2H-pyran-2-ylmethyl)thieno[2,3-d]pyrimidine-2,4(1H,3H)-dione] belongs 200 nM; to `CCn1c(=O)c2c(C)c(CN3CCNC3=O)sc2n(CC2CCCCO2)c1=O` (single isomer, unassigned) [Example 180, 3-Ethyl-5-methyl-6-[(2-oxoimidazolidin-1-yl)methyl]-1-(tetrahydro-2H-pyran-2-ylmethyl)thieno[2,3-d]pyrimidine-2,4(1H,3H)-dione], 30 nM.
For `Cc1c(CN2CCNC2=O)sc2c1c(=O)n(C(C)C)c(=O)n2CC1CCO1` (single isomer, unassigned) [Example 184, 3-Isopropyl-5-methyl-1-(oxetan-2-ylmethyl)-6-[(2-oxoimidazolidin-1-yl)methyl]thieno[2,3-d]pyrimidine-2,4(1H,3H)-dione], the IC50 is 7 nM.
To `Cc1c(CN2CCNC2=O)sc2c1c(=O)n(C(C)C)c(=O)n2CC1CCO1` (single isomer, unassigned) [Example 185, 3-Isopropyl-5-methyl-1-(oxetan-2-ylmethyl)-6-[(2-oxoimidazolidin-1-yl)methyl]thieno[2,3-d]pyrimidine-2,4(1H,3H)-dione] belongs 60 nM.
To `Cc1c(CN2CCNC2=O)sc2c1c(=O)n(C(C)C)c(=O)n2CC1CCCO1` (single isomer, unassigned) [Example 187, 3-Isopropyl-5-methyl-6-[(2-oxoimidazolidin-1-yl)methyl]-1-(tetrahydrofuran-2-ylmethyl)thieno[2,3-d]pyrimidine-2,4(1H,3H)-dione] belongs 6.3 nM; to `Cc1c(CN2CCNC2=O)sc2c1c(=O)n(C(C)C)c(=O)n2CC1CCCO1` (single isomer, unassigned) [Example 188, 3-Isopropyl-5-methyl-6-[(2-oxoimidazolidin-1-yl)methyl]-1-(tetrahydrofuran-2-ylmethyl)thieno[2,3-d]pyrimidine-2,4(1H,3H)-dione], 40 nM.
For the molecule `Cc1c(CN2CCNC2=O)sc2c1c(=O)n(CC(C)C)c(=O)n2CC1CCO1` (single isomer, unassigned) [Example 195, 3-Isobutyl-5-methyl-1-(oxetan-2-ylmethyl)-6-[(2-oxoimidazolidin-1-yl)methyl]thieno[2,3-d]pyrimidine-2,4(1H,3H)-dione], the IC50 is 41 nM.
Regarding `Cc1c(CN2CCNC2=O)sc2c1c(=O)n(CC(C)C)c(=O)n2CC1CCO1` (single isomer, unassigned) [Example 196, 3-Isobutyl-5-methyl-1-(oxetan-2-ylmethyl)-6-[(2-oxoimidazolidin-1-yl)methyl]thieno[2,3-d]pyrimidine-2,4(1H,3H)-dione], the IC50 is 6.5 nM.
Regarding `Cc1c(CN2CCNC2=O)sc2c1c(=O)n(CC(C)C)c(=O)n2CC1CCCO1` (single isomer, unassigned) [Example 197, 3-Isobutyl-5-methyl-6-[(2-oxoimidazolidin-1-yl)methyl]-1-(tetrahydrofuran-2-ylmethyl)thieno[2,3-d]pyrimidine-2,4(1H,3H)-dione], the IC50 is 18 nM.
Turning to `Cc1c(CN2CCNC2=O)sc2c1c(=O)n(CC(C)C)c(=O)n2CC1CCCO1` (single isomer, unassigned) [Example 198, 3-Isobutyl-5-methyl-6-[(2-oxoimidazolidin-1-yl)methyl]-1-(tetrahydrofuran-2-ylmethyl)thieno[2,3-d]pyrimidine-2,4(1H,3H)-dione], the IC50 was 8.9 nM.
For `Cc1c(CN2CCNC2=O)sc2c1c(=O)n(CC(F)(F)F)c(=O)n2CC1CCO1` (single isomer, unassigned) [Example 207, 5-Methyl-1-(oxetan-2-ylmethyl)-6-[(2-oxoimidazolidin-1-yl)methyl]-3-(2,2,2-trifluoroethyl)thieno[2,3-d]pyrimidine-2,4(1H,3H)-dione] the value was 43 nM.
On to `Cc1c(CN2CCNC2=O)sc2c1c(=O)n(CC(F)(F)F)c(=O)n2CC1CCO1` (single isomer, unassigned) [Example 208, 5-Methyl-1-(oxetan-2-ylmethyl)-6-[(2-oxoimidazolidin-1-yl)methyl]-3-(2,2,2-trifluoroethyl)thieno[2,3-d]pyrimidine-2,4(1H,3H)-dione], for which the IC50 worked out at 8.9 nM.
For `Cc1c(CN2CCNC2=O)sc2c1c(=O)n(CC(F)(F)F)c(=O)n2CC1CCCO1` (single isomer, unassigned) [Example 210, 5-Methyl-6-[(2-oxoimidazolidin-1-yl)methyl]-1-(tetrahydrofuran-2-ylmethyl)-3-(2,2,2-trifluoroethyl)thieno[2,3-d]pyrimidine-2,4(1H,3H)-dione] the value was 9.1 nM.
Turning to `Cc1c(CN2CCNC2=O)sc2c1c(=O)n(CC(F)(F)F)c(=O)n2CC1CCCO1` (single isomer, unassigned) [Example 211, 5-Methyl-6-[(2-oxoimidazolidin-1-yl)methyl]-1-(tetrahydrofuran-2-ylmethyl)-3-(2,2,2-trifluoroethyl)thieno[2,3-d]pyrimidine-2,4(1H,3H)-dione], the IC50 turned out to be 17 nM.
For `Cc1c(CN2CCNC2=O)sc2c1c(=O)n(CC(F)F)c(=O)n2CC1CCO1` (single isomer, unassigned) [Example 217, 3-(2,2-Difluoroethyl)-5-methyl-1-(oxetan-2-ylmethyl)-6-[(2-oxoimidazolidin-1-yl)methyl]thieno[2,3-d]pyrimidine-2,4(1H,3H)-dione], the IC50 turned out to be 79 nM.
To `Cc1c(CN2CCNC2=O)sc2c1c(=O)n(CC(F)F)c(=O)n2CC1CCO1` (single isomer, unassigned) [Example 218, 3-(2,2-Difluoroethyl)-5-methyl-1-(oxetan-2-ylmethyl)-6-[(2-oxoimidazolidin-1-yl)methyl]thieno[2,3-d]pyrimidine-2,4(1H,3H)-dione] belongs 22 nM; to `Cc1c(CN2CCNC2=O)sc2c1c(=O)n(CC(F)F)c(=O)n2CC1CCCO1` (single isomer, unassigned) [Example 220, 3-(2,2-Difluoroethyl)-5-methyl-6-[(2-oxoimidazolidin-1-yl)methyl]-1-(tetrahydrofuran-2-ylmethyl)thieno[2,3-d]pyrimidine-2,4(1H,3H)-dione], 15 nM; to `Cc1c(CN2CCNC2=O)sc2c1c(=O)n(CC(F)F)c(=O)n2CC1CCCO1` (single isomer, unassigned) [Example 221, 3-(2,2-Difluoroethyl)-5-methyl-6-[(2-oxoimidazolidin-1-yl)methyl]-1-(tetrahydrofuran-2-ylmethyl)thieno[2,3-d]pyrimidine-2,4(1H,3H)-dione], 29 nM.
For `COCCn1c(=O)n(CC(C)OC)c(=O)c2c(C)c(CN3CCNC3=O)sc21` (single isomer, unassigned) [Example 234, 1-(2-Methoxyethyl)-3-(2-methoxypropyl)-5-methyl-6-[(2-oxoimidazolidin-1-yl)methyl]thieno[2,3-d]pyrimidine-2,4(1H,3H)-dione] the value was 7.8 nM; for `COCCn1c(=O)n(CC(C)OC)c(=O)c2c(C)c(CN3CCNC3=O)sc21` (single isomer, unassigned) [Example 235, 1-(2-Methoxyethyl)-3-(2-methoxypropyl)-5-methyl-6-[(2-oxoimidazolidin-1-yl)methyl]thieno[2,3-d]pyrimidine-2,4(1H,3H)-dione], 38 nM.
With `CCn1c(=O)c2c(C)c(Cn3cc[nH]c3=O)sc2n(CC2CCCO2)c1=O` (single isomer, unassigned) [Example 243, 3-Ethyl-5-methyl-6-[(2-oxo-2,3-dihydro-1H-imidazol-1-yl)methyl]-1-(tetrahydrofuran-2-ylmethyl)thieno[2,3-d]pyrimidine-2,4(1H,3H)-dione], the IC50 is 14 nM.
For the molecule `CCn1c(=O)c2c(C)c(Cn3cc[nH]c3=O)sc2n(CC2CCCO2)c1=O` (single isomer, unassigned) [Example 244, 3-Ethyl-5-methyl-6-[(2-oxo-2,3-dihydro-1H-imidazol-1-yl)methyl]-1-(tetrahydrofuran-2-ylmethyl)thieno[2,3-d]pyrimidine-2,4(1H,3H)-dione], the IC50 was determined as 13 nM.
To `Cc1c(Cn2cc[nH]c2=O)sc2c1c(=O)n(C(C)C)c(=O)n2CC1CCCO1` (single isomer, unassigned) [Example 248, 3-Isopropyl-5-methyl-6-[(2-oxo-2,3-dihydro-1H-imidazol-1-yl)methyl]-1-(tetrahydrofuran-2-ylmethyl)thieno[2,3-d]pyrimidine-2,4(1H,3H)-dione] belongs 5.1 nM; to `Cc1c(Cn2cc[nH]c2=O)sc2c1c(=O)n(C(C)C)c(=O)n2CC1CCCO1` (single isomer, unassigned) [Example 249, 3-Isopropyl-5-methyl-6-[(2-oxo-2,3-dihydro-1H-imidazol-1-yl)methyl]-1-(tetrahydrofuran-2-ylmethyl)thieno[2,3-d]pyrimidine-2,4(1H,3H)-dione], 41 nM; to `CCn1c(=O)c2c(C)c(CN3CCNC3=NC#N)sc2n(CC2CCO2)c1=O` (single isomer, unassigned) [Example 257, [1-{[3-Ethyl-5-methyl-1-(oxetan-2-ylmethyl)-2,4-dioxo-1,2,3,4-tetrahydrothieno[2,3-d]pyrimidin-6-yl]methyl}imidazolidin-2-ylidene]cyanamide], 7.1 nM.
